In patent US8980879B2 (AbbVie Inc., priority 2013, dated 2015):

Experiments:
BRD4 (BDI_K57-E168) = target: T1, BRD4 (BDI_K57-E168) (Homo sapiens, UniProt O60885); assay: TR-FRET bromodomain binding assay, BRD4 first bromodomain; conditions: His-tagged BD1, 100 nM Alexa647 probe; assay protocol D or F as given per row in c1; Ki calculated from IC50
T1 construct: BD1: amino acids K57-E168; made in house
Experimental: (§1) A time-resolved fluorescence resonance energy transfer (TR-FRET) assay was used to determine the affinities of compounds of the Examples listed in Table 1 for each bromodomain of BRD4. His-tagged first (BD1: amino acids K57-E168) and second (BD2: amino acids E352-E168) bromodomains of BRD4 were expressed and purified. An Alexa647-labeled BET-inhibitor was used as the fluorescent probe in the assay.
(§2) Compound dilution series were prepared in DMSO via an approximately 3-fold serial dilution from one of the following:
(§3) Assay method D: 500 μM-8.5 nM
(§4) Assay method E: 0.47 mM to 7.8 nM
(§5) Assay method F: 250 μM-4.2 nM
(§6) Assay method G: 0.047 mM to 0.78 nM
(§7) or 5-fold serial dilution from one of the following:
(§8) Assay method A: 2.5 mM-800 nM
(§9) Assay method B: 2.5 mM-797 nM
(§10) For Assay methods A, C, D, and F: Compounds were then diluted 6:100 in assay buffer (20 mM Sodium Phosphate, pH 6.0, 50 mM NaCl, 1 mM Ethylenediaminetetraacetic acid, 0.01% Triton X-100, 1 mM DL-Dithiothreitol) to yield 3× working solutions. Six microliters (μL) of the working solution was then transferred to white, low-volume assay plates (Costar #3673). A 1.5× assay mixture containing His-tagged bromodomain, Europium-conjugated anti-His antibody (Invitrogen PV5596) and the Alexa-647-conjugated probe molecule was also prepared. Twelve μL of this solution were added to the assay plate to reach a final volume of 18 μL.
(§11) For Assay methods B, E, and G: Compound dilutions were added directly into white, low-volume assay plates (Perkin Elmer Proxiplate 384 Plus#6008280) using a Labcyte Echo in conjunction with Labcyte Access and Thermo Multidrop CombinL robotics. Compounds were then suspended in eight microliters (μL) of assay buffer (20 mM Sodium Phosphate, pH 6.0, 50 mM NaCl, 1 mM Ethylenediaminetetraacetic acid disodium salt dihydrate, 0.01% Triton X-100, 1 mM DL-Dithiothreitol) containing His-tagged bromodomain, Europium-conjugated anti-His antibody (Invitrogen PV5596) and Alexa-647-conjugated probe.
(§12) The final concentration of 1× assay mixture for assay methods A, B, C, D, E, F, and G contains 2% DMSO, 8 nM His-tagged bromodomain, 1 nM Europium-conjugated anti-His-tag antibody and 100 nM or 30 nM probe (for BDI or BDII, respectively) and compound concentration in the range of: 50 μM-16 nM for method A, 49.02 μM-15.63 nM for method B, 25 μM-423 pM for method C, 10 μM-169 pM for method D, 9.19 μM 150 pM for method E, 5 μM-85 pM for method F, and 0.92 μM-15 pM for method G.
(§13) After a one-hour equilibration at room temperature, TR-FRET ratios were determined using an Envision multilabel plate reader (Ex 340, Em 495/520).
(§14) TR-FRET data were normalized to the means of 24 no-compound controls (“high”) and 8 controls containing 1 μM un-labeled probe (“low”). Percent inhibition was plotted as a function of compound concentration and the data were fit with the 4 parameter logistic equation to obtain IC50s Inhibition constants (Ki) were calculated from the IC50s, probe Kd and probe concentration. Typical Z′ values were between 0.65 and 0.75. The minimum significant ratio was determined to evaluate assay reproducibility (Eastwood et al., (2006) J Biomol Screen, 11: 253-261). The MSR was determined to be 2.03 for BDI and 1.93 for BDII, and a moving MSR (last six run MSR overtime) for both BDI and BDII was typically <3.

[1] = system: breast cancer cell line MX-1; assay: MX-1 cell line proliferation assay; assay type: cell-based; conditions: Homo sapiens, MX1; MX-1 cells, 3-day (72 h) proliferation, Cell Titer Glo; read-out: Cellular proliferation: EC50
Experimental: MX-1 Cell Line Proliferation Assay
The impact of compounds of the Examples on cancer cell proliferation was determined using the breast cancer cell line MX-1 (ATCC) in a 3-day proliferation assay and the data are reported in Table 1. MX-1 cells were maintained in RPMI 1640 medium (Sigma) supplemented with 10% FBS at 37 C.° and an atmosphere of 5% CO2. For compound testing, MX-1 cells were plated in 96-well black bottom plates at a density of 5000 cells/well in 90 μL of culture media and incubated at 37° overnight to allow cell adhesion and spreading. Compound dilution series were prepared in DMSO via a 3-fold serial dilution from 3 mM to 0.1 μM. The DMSO dilution series were then diluted 1:100 in phosphate buffered saline, and 10 μL of the resulted solution were added to the appropriate wells of the MX-1 cell plate. The final compound concentrations in the wells were 3, 1, 0.3, 0.1, 0.03, 0.01, 0.003, 0.001, 0.0003 and 0.0001 μM.
Luminescence readings from the Cell Titer Glo assay were normalized to the DMSO treated cells and analyzed using the GraphPad Prism software with sigmoidal curve fitting to obtain EC50s. The minimum significant ratio (MSR) was determined to evaluate assay reproducibility (Eastwood et al., (2006) J Biomol Screen, 11: 253-261). The overall MSR was determined to be 2.1 and a moving MSR (last six run MSR overtime) has been <2.

BRD4 (BDII_E352-M457) = target: T2, BRD4 (BDII_E352-M457) (Homo sapiens, UniProt O60885); assay: TR-FRET bromodomain binding assay, BRD4 second bromodomain
T2 construct: protocol; made in house
Experimental: as §1, §2, §3, §4, §5, §6, §7, §8, §9, §10, §11, §12, §13, §14

| SMILES | Ki (BRD4 (BDI_K57-E168)) [nM] | EC50 [1] [nM] | Ki (BRD4 (BDII_E352-M457)) [nM] |
| --- | --- | --- | --- |
| Cn1cc2c3c(c[nH]c(=O)c31)CNc1ccc(S(C)(=O)=O)cc1-2 [Example 1] | 1350 | > 3000 | 2820 |
| Cn1cc2c3c(c[nH]c(=O)c31)CN(CC1CC1)c1ccc(S(C)(=O)=O)cc1-2 [Example 2] | 21 | 144 | 430 |
| Cn1cc2c3c(c[nH]c(=O)c31)CN(C(=O)C1CC1)c1ccc(CS(C)(=O)=O)cc1-2 [Example 6] | 3.53 | 16.4 | 2.44 |
| Cn1cc2c3c(c[nH]c(=O)c31)CN(C(=O)c1ccccc1)c1ccc(CS(C)(=O)=O)cc1-2 [Example 7] | 59.1 | 273 | 97.5 |
| COCCC1c2c[nH]c(=O)c3c2c(cn3C)-c2cc(CS(C)(=O)=O)ccc2N1c1ccc(F)cc1 (stereo not drawn) [Example 8] | 5.81 | 46.6 | 25.2 |
| COC(=O)CCC1c2c[nH]c(=O)c3c2c(cn3C)-c2cc(CS(C)(=O)=O)ccc2N1c1ccc(F)cc1 (stereo not drawn) [Example 9] | 6.29 | 805 | 18.2 |
| Cn1cc2c3c(c[nH]c(=O)c31)C(CC1CCOCC1)N(c1ccc(F)cc1)c1ccc(CS(C)(=O)=O)cc1-2 (stereo not drawn) [Example 10] | 8.23 | 81.6 | 57.4 |
| Cn1cc2c3c(c[nH]c(=O)c31)CN(CC1CC1)c1ccccc1-2 [Example 11] | 7.14 | 56.8 | 18.9 |
| CCS(=O)(=O)Nc1ccc2c(c1)-c1cn(C)c3c(=O)[nH]cc(c13)CN2c1ccc(F)cc1 [Example 12] | 2.18 | 5.63 | 4.3 |
| CCOC(=O)C1c2c[nH]c(=O)c3c2c(cn3C)-c2cc(CS(C)(=O)=O)ccc2N1c1ccc(F)cc1 (stereo not drawn) [Example 15] | 9.14 | 36.3 | 26.9 |
| Cn1cc2c3c(c[nH]c(=O)c31)CN(c1ccc(F)cc1)c1ccc(N)cc1-2 [Example 23] | 1.38 | 4.79 | 7.54 |
| Cn1cc2c3c(c[nH]c(=O)c31)C(c1ccccc1)N(c1ccc(F)cc1)c1ccc(Cl)cc1-2 (stereo not drawn) [Example 24] | 178 | – | > 408 |
| Cn1cc2c3c(c[nH]c(=O)c31)C(c1ccccc1)Nc1ccc(CS(C)(=O)=O)cc1-2 (stereo not drawn) [Example 25] | 192 | > 1000 | 124 |
| Cn1cc2c3c(c[nH]c(=O)c31)CN(c1ccc(F)cc1)c1ccc(NC(=O)Cn3ccc(-c4ccccc4F)n3)cc1-2 [Example 31] | 11.5 | – | 79.5 |
| COc1cccc(NC(=O)Nc2ccc3c(c2)-c2cn(C)c4c(=O)[nH]cc(c24)CN3c2ccc(F)cc2)c1 [Example 45] | 7.12 | – | 130 |
| CC(NC(=O)c1ccc2c(c1)-c1cn(C)c3c(=O)[nH]cc(c13)CN2c1ccc(F)cc1)c1ccc(F)cc1 (stereo not drawn) [Example 59] | 2.89 | – | 71.5 |
| Cn1cc2c3c(c[nH]c(=O)c31)CN(c1ccc(F)cc1F)c1ncc(N)cc1-2 [Example 67] | 21.2 | – | 7 |
| CC(=O)N1CCC(N2Cc3c[nH]c(=O)c4c3c(cn4C)-c3cc(N)ccc32)CC1 [Example 73] | 7.08 | – | 41.8 |

The next lines start with the values.

| Ki (BRD4 (BDI_K57-E168)) [nM] | EC50 [1] [nM] | Ki (BRD4 (BDII_E352-M457)) [nM] | SMILES |
| --- | --- | --- | --- |
| 2.74 | 72 | 34.1 | Cn1cc2c3c(c[nH]c(=O)c31)CN(c1ccc(F)cc1)c1ccc(Cl)cc1-2 [Example 13] |
| 3 | 2.78 | 3.69 | Cn1cc2c3c(c[nH]c(=O)c31)CN(c1ccc(F)cc1)c1ncc(N)cc1-2 [Example 14] |
| 0.79 | 5.55 | 5.07 | Cn1cc2c3c(c[nH]c(=O)c31)CN(c1ccc(F)cc1)c1ncc(F)cc1-2 [Example 16] |
| 1.43 | 19.9 | 2.48 | Cn1cc2c3c(c[nH]c(=O)c31)CN(c1ccc(F)cc1)c1ncc(NC(=O)Cc3cc(F)ccc3Cl)cc1-2 [Example 17] |
| 1.82 | 7.02 | 3.46 | Cc1cc(CC(=O)Nc2cnc3c(c2)-c2cn(C)c4c(=O)[nH]cc(c24)CN3c2ccc(F)cc2)nn1C [Example 18] |
| 1.32 | 68.7 | 11.6 | Cn1cc2c3c(c[nH]c(=O)c31)CN(c1ccc(F)cc1)c1ncc(NC(=O)Cn3ccc(-c4ccccc4F)n3)cc1-2 [Example 19] |
| 1.76 | 36.5 | 4.69 | Cn1cc2c3c(c[nH]c(=O)c31)CN(c1ccc(F)cc1)c1ncc(NC(=O)Cc3ccc(Cl)cc3F)cc1-2 [Example 20] |
| 1.05 | 16.6 | 2.69 | Cn1cc2c3c(c[nH]c(=O)c31)CN(c1ccc(F)cc1)c1ncc(NC(=O)Cc3ccc4c(c3)CCCO4)cc1-2 [Example 21] |
| 1.29 | 16.5 | 3.03 | Cn1cc(CC(=O)Nc2cnc3c(c2)-c2cn(C)c4c(=O)[nH]cc(c24)CN3c2ccc(F)cc2)cn1 [Example 22] |
| 3.03 | – | 22.4 | Cn1cc2c3c(c[nH]c(=O)c31)CN(c1ccc(F)cc1)c1ccc(NC(=O)Cc3ccc(Cl)cc3F)cc1-2 [Example 29] |
| 3.29 | – | 19.7 | Cn1cc2c3c(c[nH]c(=O)c31)CN(c1ccc(F)cc1)c1ccc(NC(=O)Cc3ccc4c(c3)CCCO4)cc1-2 [Example 46] |
| 5.12 | – | 84.8 | Cn1cc2c3c(c[nH]c(=O)c31)CN(c1ccc(F)cc1)c1ccc(NC(=O)Cc3cc(F)ccc3C(F)(F)F)cc1-2 [Example 51] |
| 2.61 | – | 50.1 | Cc1ccc(C)c(CC(=O)Nc2ccc3c(c2)-c2cn(C)c4c(=O)[nH]cc(c24)CN3c2ccc(F)cc2)c1 [Example 53] |
| 2.07 | – | 17.9 | Cn1cc2c3c(c[nH]c(=O)c31)CN(c1ccc(F)cc1)c1ccc(NC(=O)Cc3ccccc3)cc1-2 [Example 54] |
| 9.31 | – | 240 | Cn1cc2c3c(c[nH]c(=O)c31)CN(c1ccc(F)cc1)c1ccc(NC(=O)Cc3cc(Cl)ccc3Oc3ccccc3)cc1-2 [Example 55] |
| 1.74 | – | 57.4 | COc1ccc(F)cc1CNC(=O)c1ccc2c(c1)-c1cn(C)c3c(=O)[nH]cc(c13)CN2c1ccc(F)cc1 [Example 56] |
| 5.17 | – | 147 | CC(NC(=O)c1ccc2c(c1)-c1cn(C)c3c(=O)[nH]cc(c13)CN2c1ccc(F)cc1)c1ccc(Cl)cc1Cl (stereo not drawn) [Example 61] |
| 1.73 | – | 46.9 | Cn1cc2c3c(c[nH]c(=O)c31)CN(c1ccc(F)cc1)c1ccc(C(=O)NCc3cc(F)ccc3F)cc1-2 [Example 64] |
